Experimental data published in the CheMixHub viscosity set.
± gives the uncertainty stated by the source.

Experiment: xn = mol fraction of the nth substance listed

CC(=O)OCC(C)C + CCc1ccccc1
viscosity [mPa·s], 101 kPa
Conditions | x1 = 0.0948 | x1 = 0.1767 | x1 = 0.2601 | x1 = 0.3586 | x1 = 0.4735 | x1 = 0.5727 | x1 = 0.7004 | x1 = 0.7989 | x1 = 0.8805 | x1 = 0.9463
303.15 K | 0.596 ± 0.011 | 0.597 ± 0.011 | 0.599 ± 0.011 | 0.602 ± 0.011 | 0.606 ± 0.011 | 0.61 ± 0.011 | 0.616 ± 0.011 | 0.623 ± 0.011 | 0.63 ± 0.011 | 0.635 ± 0.011
313.15 K | 0.527 ± 0.011 | 0.528 ± 0.011 | 0.529 ± 0.011 | 0.53 ± 0.011 | 0.534 ± 0.011 | 0.539 ± 0.011 | 0.545 ± 0.011 | 0.552 ± 0.011 | 0.559 ± 0.011 | 0.569 ± 0.011

COCCO + CC(C)(C)O
Conditions | viscosity [mPa·s]
303.15 K, 101.3 kPa, x1 = 0.1011 | 2.892 ± 0.033
303.15 K, 101.3 kPa, x1 = 0.1977 | 2.538 ± 0.029
303.15 K, 101.3 kPa, x1 = 0.2694 | 2.324 ± 0.027
303.15 K, 101.3 kPa, x1 = 0.3774 | 2.043 ± 0.024
303.15 K, 101.3 kPa, x1 = 0.4851 | 1.831 ± 0.021
303.15 K, 101.3 kPa, x1 = 0.6774 | 1.579 ± 0.018
303.15 K, 101.3 kPa, x1 = 0.745 | 1.523 ± 0.018
303.15 K, 101.3 kPa, x1 = 0.849 | 1.456 ± 0.017
303.15 K, 101.3 kPa, x1 = 0.9028 | 1.427 ± 0.017
308.15 K, 101.33 kPa, x1 = 0.119 | 2.241 ± 0.019
308.15 K, 101.33 kPa, x1 = 0.2504 | 1.929 ± 0.016
308.15 K, 101.33 kPa, x1 = 0.3687 | 1.713 ± 0.014
308.15 K, 101.33 kPa, x1 = 0.5096 | 1.527 ± 0.013
308.15 K, 101.33 kPa, x1 = 0.6441 | 1.402 ± 0.012
308.15 K, 101.33 kPa, x1 = 0.7218 | 1.35 ± 0.011
308.15 K, 101.33 kPa, x1 = 0.8035 | 1.298 ± 0.011
308.15 K, 101.33 kPa, x1 = 0.9026 | 1.242 ± 0.01

COCCO + CC(C)CO
Conditions | viscosity [mPa·s]
303.15 K, 101.3 kPa, x1 = 0.0962 | 2.478 ± 0.029
303.15 K, 101.3 kPa, x1 = 0.2087 | 2.104 ± 0.024
303.15 K, 101.3 kPa, x1 = 0.328 | 1.823 ± 0.021
303.15 K, 101.3 kPa, x1 = 0.433 | 1.653 ± 0.019
303.15 K, 101.3 kPa, x1 = 0.5976 | 1.493 ± 0.017
303.15 K, 101.3 kPa, x1 = 0.6411 | 1.468 ± 0.017
303.15 K, 101.3 kPa, x1 = 0.7261 | 1.431 ± 0.017
303.15 K, 101.3 kPa, x1 = 0.8566 | 1.398 ± 0.016
303.15 K, 101.3 kPa, x1 = 0.9229 | 1.391 ± 0.016
308.15 K, 101.33 kPa, x1 = 0.1438 | 1.902 ± 0.016
308.15 K, 101.33 kPa, x1 = 0.2792 | 1.664 ± 0.014
308.15 K, 101.33 kPa, x1 = 0.3329 | 1.595 ± 0.013
308.15 K, 101.33 kPa, x1 = 0.505 | 1.422 ± 0.012
308.15 K, 101.33 kPa, x1 = 0.6648 | 1.32 ± 0.011
308.15 K, 101.33 kPa, x1 = 0.7249 | 1.292 ± 0.011
308.15 K, 101.33 kPa, x1 = 0.7936 | 1.264 ± 0.011
308.15 K, 101.33 kPa, x1 = 0.8977 | 1.231 ± 0.01

CCCCNCCCC + CCCCCO
viscosity [mPa·s], 101.33 kPa
Conditions | x1 = 0.0971 | x1 = 0.2014 | x1 = 0.3007 | x1 = 0.4003 | x1 = 0.5004 | x1 = 0.5841 | x1 = 0.6901 | x1 = 0.7836 | x1 = 0.8845
303.15 K | 2.493 ± 0.029 | 2.178 ± 0.025 | 1.913 ± 0.023 | 1.676 ± 0.02 | 1.473 ± 0.018 | 1.319 ± 0.016 | 1.142 ± 0.014 | 1.006 ± 0.013 | 0.8804 ± 0.011
313.15 K | 2.078 ± 0.024 | 1.814 ± 0.022 | 1.601 ± 0.019 | 1.41 ± 0.017 | 1.241 ± 0.015 | 1.116 ± 0.014 | 0.9767 ± 0.012 | 0.8701 ± 0.011 | 0.7633 ± 0.01

COCCO + CO
viscosity [mPa·s]
Conditions | 298.15 K | 308.15 K | 318.15 K
101 kPa, x1 = 0.04469 | 0.6045 ± 0.061 | 0.5088 ± 0.051 | 0.4575 ± 0.046
101 kPa, x1 = 0.09523 | 0.6714 ± 0.067 | 0.536 ± 0.054 | 0.469 ± 0.047
101 kPa, x1 = 0.1529 | 0.7467 ± 0.075 | – | 0.4955 ± 0.05
101 kPa, x1 = 0.2192 | 0.8508 ± 0.085 | 0.6249 ± 0.063 | 0.5383 ± 0.054
101 kPa, x1 = 0.2963 | 0.9698 ± 0.097 | 0.6991 ± 0.07 | 0.6017 ± 0.06
101 kPa, x1 = 0.3871 | 1.085 ± 0.11 | 0.7594 ± 0.076 | 0.6484 ± 0.065
101 kPa, x1 = 0.4956 | 1.19 ± 0.12 | 0.8407 ± 0.084 | 0.7649 ± 0.077
101 kPa, x1 = 0.6274 | 1.299 ± 0.13 | 0.9321 ± 0.093 | 0.8436 ± 0.085
101 kPa, x1 = 0.7912 | 1.419 ± 0.14 | 1.058 ± 0.11 | 0.9667 ± 0.097
101.33 kPa, x1 = 0.1175 | – | 0.569 ± 0.005 | –
101.33 kPa, x1 = 0.2098 | – | 0.64 ± 0.006 | –
101.33 kPa, x1 = 0.3143 | – | 0.717 ± 0.006 | –
101.33 kPa, x1 = 0.4866 | – | 0.844 ± 0.007 | –
101.33 kPa, x1 = 0.6126 | – | 0.93 ± 0.008 | –
101.33 kPa, x1 = 0.762 | – | 1.036 ± 0.009 | –
101.33 kPa, x1 = 0.8201 | – | 1.074 ± 0.009 | –
101.33 kPa, x1 = 0.9101 | – | 1.13 ± 0.01 | –

CCOC(=O)C(=O)OCC + CCCCCCCCO
303.15 K, 101.33 kPa
Conditions | viscosity [mPa·s]
x1 = 0.0949 | 4.702 ± 0.027
x1 = 0.2003 | 3.667 ± 0.021
x1 = 0.2883 | 3.152 ± 0.019
x1 = 0.4 | 2.636 ± 0.016
x1 = 0.5026 | 2.296 ± 0.014
x1 = 0.6064 | 2.027 ± 0.012
x1 = 0.6984 | 1.86 ± 0.011
x1 = 0.7809 | 1.74 ± 0.011
x1 = 0.8763 | 1.638 ± 0.01

CCCCNCCCC + CCCCCCCCCCO
viscosity [mPa·s], 101.33 kPa
Conditions | x1 = 0.0981 | x1 = 0.1964 | x1 = 0.286 | x1 = 0.3857 | x1 = 0.4851 | x1 = 0.5846 | x1 = 0.6877 | x1 = 0.7856 | x1 = 0.8866
303.15 K | 7.771 ± 0.078 | 6.615 ± 0.069 | 5.545 ± 0.06 | 4.423 ± 0.05 | 3.439 ± 0.039 | 2.607 ± 0.03 | 1.944 ± 0.023 | 1.445 ± 0.017 | 1.073 ± 0.013
313.15 K | 5.959 ± 0.064 | 4.985 ± 0.056 | 4.15 ± 0.047 | 3.305 ± 0.038 | 2.611 ± 0.03 | 2.021 ± 0.024 | 1.545 ± 0.019 | 1.199 ± 0.015 | 0.9135 ± 0.012

CCCC(=O)O + CC(C)=O
viscosity [mPa·s], 101 kPa
Conditions | x1 = 0.0996 | x1 = 0.1883 | x1 = 0.3023 | x1 = 0.3759 | x1 = 0.5144 | x1 = 0.5977 | x1 = 0.7009 | x1 = 0.7989 | x1 = 0.9016 | x1 = 0.9275
298.15 K | 0.3862 ± 0.01 | 0.4576 ± 0.012 | 0.5666 ± 0.015 | 0.6477 ± 0.017 | 0.8181 ± 0.022 | 0.9307 ± 0.025 | 1.071 ± 0.028 | 1.216 ± 0.032 | 1.361 ± 0.036 | 1.408 ± 0.037
308.15 K | 0.351 ± 0.0095 | 0.4131 ± 0.011 | 0.5047 ± 0.013 | 0.5741 ± 0.015 | 0.7153 ± 0.019 | 0.8095 ± 0.021 | 0.9246 ± 0.024 | 1.041 ± 0.028 | 1.158 ± 0.031 | 1.197 ± 0.032
318.15 K | 0.3183 ± 0.0086 | 0.3666 ± 0.0099 | 0.4489 ± 0.012 | 0.5135 ± 0.014 | 0.6265 ± 0.017 | 0.7078 ± 0.019 | 0.7969 ± 0.021 | 0.8942 ± 0.024 | 0.9947 ± 0.026 | 1.018 ± 0.027

CCCC(=O)O + O=[N+]([O-])c1ccccc1
viscosity [mPa·s], 101 kPa
Conditions | x2 = 0.1103 | x2 = 0.2181 | x2 = 0.3235 | x2 = 0.4266 | x2 = 0.5274 | x2 = 0.6259 | x2 = 0.7225 | x2 = 0.8169 | x2 = 0.9094
298.15 K | 1.829 ± 0.014 | 1.83 ± 0.014 | 1.837 ± 0.014 | 1.841 ± 0.014 | 1.837 ± 0.014 | 1.82 ± 0.014 | 1.786 ± 0.014 | 1.732 ± 0.013 | 1.653 ± 0.013
308.15 K | 1.531 ± 0.012 | 1.564 ± 0.012 | 1.59 ± 0.012 | 1.604 ± 0.012 | 1.603 ± 0.012 | 1.582 ± 0.012 | 1.539 ± 0.012 | 1.473 ± 0.011 | 1.381 ± 0.011
318.15 K | 1.355 ± 0.01 | 1.458 ± 0.011 | 1.527 ± 0.012 | 1.56 ± 0.012 | 1.559 ± 0.012 | 1.523 ± 0.012 | 1.455 ± 0.011 | 1.354 ± 0.01 | 1.22 ± 0.0096
